This is an account of results in paper PMC4729137, “Functional analysis of androgen receptor mutations that confer anti-androgen resistance identified in circulating cell-free DNA from prostate cancer patients” (Genome Biology, 2016).

Assay [1] deals with T1, T878A-AR (Homo sapiens, UniProt P10275, T878A).
T1 sequence (P10275 1-920 T878A): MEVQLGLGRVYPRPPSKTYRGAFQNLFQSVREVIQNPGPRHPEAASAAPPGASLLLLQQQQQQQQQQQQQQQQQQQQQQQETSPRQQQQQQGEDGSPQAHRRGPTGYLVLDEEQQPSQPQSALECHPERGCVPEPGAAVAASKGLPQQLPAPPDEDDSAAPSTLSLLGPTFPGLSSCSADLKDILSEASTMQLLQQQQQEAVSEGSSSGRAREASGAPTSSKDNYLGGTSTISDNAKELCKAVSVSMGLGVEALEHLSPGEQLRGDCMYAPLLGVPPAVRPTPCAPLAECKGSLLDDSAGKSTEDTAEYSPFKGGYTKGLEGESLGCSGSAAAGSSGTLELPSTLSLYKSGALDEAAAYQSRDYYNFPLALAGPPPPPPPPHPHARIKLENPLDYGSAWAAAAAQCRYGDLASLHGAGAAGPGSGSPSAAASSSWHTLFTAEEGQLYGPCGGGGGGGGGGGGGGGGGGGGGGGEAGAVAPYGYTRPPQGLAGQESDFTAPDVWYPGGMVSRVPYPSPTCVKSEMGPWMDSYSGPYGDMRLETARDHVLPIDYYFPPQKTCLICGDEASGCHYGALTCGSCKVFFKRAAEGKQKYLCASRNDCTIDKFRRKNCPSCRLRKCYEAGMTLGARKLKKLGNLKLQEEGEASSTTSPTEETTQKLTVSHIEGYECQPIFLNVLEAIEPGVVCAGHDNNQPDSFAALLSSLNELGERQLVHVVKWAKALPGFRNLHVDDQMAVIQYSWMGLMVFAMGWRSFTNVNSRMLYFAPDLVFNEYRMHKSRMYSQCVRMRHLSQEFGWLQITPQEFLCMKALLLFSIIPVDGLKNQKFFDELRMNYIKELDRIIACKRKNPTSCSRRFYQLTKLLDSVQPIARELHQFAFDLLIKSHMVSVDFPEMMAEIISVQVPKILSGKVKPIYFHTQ
Type of assay: cell-based. Further details: Full-length human AR (WT-AR) was encoded on a pcDNA3.1 expression plasmid; expressed in transfected cells; host or cells: PC3 cells. Conditions: AR mutant T878A; transfected PC3 cells; 0.1 nM R1881; drug 0 to 50 μM. From the text: Full-length human AR (WT-AR) was encoded on a pcDNA3.1 expression plasmid (Life technologies). The LBD point mutations (single and multiple) were generated using the QuikChange II Site-Directed Mutagenesis Kit (Agilent Technologies) as per manufacturer’s instructions using WT-AR as the template. The mutagenic oligonucleotide primers were designed individually with the desired mutation in the middle of the primer with approximately 10 to 15 bases of correct sequence on both sides.
PC3 cells were seeded and transfected as described above. […] A non-stimulated/no R1881 control was used. After 24 h, cells were lysed and AR-dependent luciferase activity was quantified. Each concentration was assayed in quadruplicate n = 4, with a biological replicate of n = 3. Results were averaged and normalized by expressing them as a percentage of WT AR activity.

In the next assay the target is T2, WT-AR (Homo sapiens, UniProt P10275).
T2 sequence (P10275 1-920): T1 sequence (P10275 1-920 T878A) with A878T
Nature of the assay: cell-based.

Assay [2] concerns the target T1, T878A-AR. Briefly: cell-based.

Numbering of substitutions follows the chain as printed.

In the case of `CC(C)(O)C(=O)Nc1ccc([N+](=O)[O-])c(C(F)(F)F)c1` [Hydroxyflutamide, hydroxyflutamide], the “Agonist response to treatment” value at T878A-AR [1] is “Partial”.

Regarding `C[C@]12CCC(=O)C=C1CC[C@@H]1[C@@H]2[C@@H](O)C[C@@]2(C)[C@H]1CC[C@]2(O)C(=O)CO` [hydrocortisone], the EC50 on WT-AR and at T878A-AR [2] was more than 0.5 µM in each case.
